Converted amounts (≈) assume the structure as drawn. “And” between values parts separate entries of the source, which are not always exact repeats. Equal entries are not always repeated. Where two headings read alike, the source gives them in different places.
Columns and labels:
[1] = test system: Streptococcus pneumoniae Park I; assay: microbe, parasite or virus in culture; format: cell-based
Method: (§1) The MIC's s in Table III were determined by standard agar-dilution assays. The MIC's in Table IV were obtained using a conventional broth-dilution microtiter test.

[2] = test system: Staphylococcus aureus X1.1; assay: MIC, standard agar-dilution assay (Table III); format: cell-based
Method: as §1

[3] = test system: Staphylococcus aureus X400; assay: MIC, standard agar-dilution assay (Table III); format: cell-based
Method: as §1

[4] = test system: Haemophilus influenzae 76; assay: MIC, standard agar-dilution assay (Table III); format: cell-based; conditions: agar dilution; Haemophilus influenzae 76, ampicillin-resistant strain; read-out: MIC
Method: as §1

[5] = test system: Streptococcus Group D 2041; assay: MIC, standard agar-dilution assay (Table III); format: cell-based; conditions: GROUPD2041; agar dilution; Streptococcus Group D 2041; read-out: MIC
Method: as §1

[6] = test system: Haemophilus influenzae C.L.; assay: MIC, standard agar-dilution assay (Table III); format: cell-based; conditions: agar dilution; Haemophilus influenzae C.L., ampicillin-sensitive strain; read-out: MIC
Method: as §1

[7] = test system: Staphylococcus aureus V41; assay: MIC, standard agar-dilution assay (Table III); format: cell-based; conditions: Staphylococcus aureus V41, penicillin-resistant strain
Method: as §1

[8] = test system: Streptococcus Group D X66; assay: MIC, standard agar-dilution assay (Table III); format: cell-based; conditions: agar dilution; Streptococcus Group D X66; read-out: MIC
Method: as §1

[9] = test system: Staphylococcus epidermidis EPI1; assay: MIC, standard agar-dilution assay (Table III); format: cell-based
Method: as §1

[10] = test system: Staphylococcus epidermidis 222; assay: MIC, standard agar-dilution assay (Table III); format: cell-based
Method: as §1

[11] = test system: Staphylococcus aureus S13E; assay: MIC, standard agar-dilution assay (Table III); format: cell-based
Method: as §1

[12] = test system: Streptococcus pyogenes C203; assay: MIC, standard agar-dilution assay (Table III); format: cell-based; conditions: agar dilution; Streptococcus pyogenes C203; read-out: MIC
Method: as §1

[13] = test system: Streptococcus pyogenes; assay: ED50 vs Streptococcus pyogenes experimental infection in mice (Table VI); format: in vivo; conditions: two doses, several values = results from more than one test
Method: (§2) Certain formula 1a compounds have also shown in vivo antimicrobial activity against experimental bacterial infections. When two doses of test compound were administered to mice in experimental infections, the activity observed was measured as an ED50 value [effective dose in mg/kg to protect 50% of the test animals: see Warren Wick, et al., J. Bacteriol. 81, 233-235 (1961)].

[14] = test system: Mycoplasma hyorhinis 29E; assay: MIC, conventional broth-dilution microtiter test (Table IV); format: cell-based; conditions: Mycoplasma, 29E
Method: as §1

[15] = test system: Mycoplasma gallisepticum 36H; assay: as above; format: cell-based; conditions: Mycoplasmoides gallisepticum; broth-dilution microtiter; Mycoplasma gallisepticum 36H; read-out: MIC
Method: as §1

[16] = test system: Pasteurella multocida 60A; assay: as above; format: cell-based; conditions: broth-dilution microtiter; Pasteurella multocida 60A, avian isolate; read-out: MIC
Method: as §1

[17] = test system: Pasteurella hemolytica 23C; assay: as above; format: cell-based; conditions: broth-dilution microtiter; Pasteurella hemolytica 23C; read-out: MIC
Method: as §1

[18] = test system: Mycoplasma gallisepticum 15E; assay: as above; format: cell-based; conditions: Mycoplasmoides gallisepticum; broth-dilution microtiter; Mycoplasma gallisepticum 15E; read-out: MIC
Method: as §1

[19] = test system: Mycoplasma gallisepticum 29C; assay: as above; format: cell-based; conditions: Mycoplasmoides gallisepticum
Method: as §1

[20] = test system: Streptococcus sp. 19F; assay: as above; format: cell-based
Method: as §1

[21] = test system: Pasteurella multocida 22A; assay: as above; format: cell-based; conditions: broth-dilution microtiter; Pasteurella multocida 22A; read-out: MIC
Method: as §1

[22] = test system: Pasteurella multocida 17E; assay: as above; format: cell-based; conditions: broth-dilution microtiter; Pasteurella multocida 17E, bovine isolate; read-out: MIC
Method: as §1

[23] = test system: Pasteurella hemolytica 22C; assay: as above; format: cell-based
Method: as §1

[24] = test system: Pasteurella hemolytica 41D; assay: as above; format: cell-based; conditions: broth-dilution microtiter; Pasteurella hemolytica 41D; read-out: MIC
Method: as §1

[25] = test system: Pasteurella multocida 40G; assay: as above; format: cell-based; conditions: broth-dilution microtiter; Pasteurella multocida 40G; read-out: MIC
Method: as §1

[26] = test system: Staphylococcus aureus 19C; assay: as above; format: cell-based; conditions: broth-dilution microtiter; Staphylococcus aureus 19C; read-out: MIC
Method: as §1

[27] = test system: Mycoplasma synoviae 40A; assay: as above; format: cell-based; conditions: Mycoplasmopsis synoviae
Method: as §1

[28] = test system: Mycoplasma hyopneumoniae S5972; assay: as above; format: cell-based; conditions: Mesomycoplasma hyopneumoniae
Method: as §1

[29] = test system: Bordetella bronchisepticum 95B; assay: as above; format: cell-based
Method: as §1

[30] = test system: Pasteurella multocida 68C; assay: as above; format: cell-based; conditions: broth-dilution microtiter; Pasteurella multocida 68C; read-out: MIC
Method: as §1

[31] = test system: Staphylococcus aureus; assay: ED50 vs. Staphylococcus aureus experimental infection in mice (Table V); format: in vivo; conditions: sc, subcutaneous, two doses, dose protecting 50% of animals, read-out: ED50 Subcutaneous
Method: as §2

[32] = test system: Streptococcous pneumoniae; assay: ED50 vs. Streptococcous pneumoniae experimental infection in mice (Table VII); format: in vivo; conditions: Mus musculus, sc, subcutaneous, two doses, read-out: ED50 Subcutaneous
Method: as §2

[33] = test system: Pasteurella multocida; assay: Activity in Pasteurella multocida-infected one-day-old chicks (Table VIII); format: in vivo; conditions: subcutaneous 30 mg/kg × 2, 1 and 4 hours post-challenge, all non-medicated chicks died within 24 hours
Method: Table VIII summarizes the results of tests in which illustrative compounds were evaluated against a Pasteurella infection in one-day-old chicks. The compounds were administered parenterally after challenge of the chicks with Pasteurella multocida (0.1 mL of a 10^-4 dilution of a twenty-hour tryptose broth culture of an avian P. multocida given subcutaneously). In these tests, all non-medicated infected chicks died within 24 hours of Pasteurella challenge. In the tests summarized in Table VIII, the compounds were administered by subcutaneous injection at a dosage of 30 mg/kg, 1 and 4 hours post-challenge of the chicks with P. multocida.

Row | Compound | MIC [2] | MIC [4] | MIC [5] | MIC [6] | MIC [7] | MIC [8] | MIC [11] | MIC [12] | ED50 ([13]; po, read-out: ED50 Oral) | MIC [15] | MIC [16] | MIC [17] | MIC [18] | MIC [20] | MIC [21] | MIC [22] | MIC [24] | MIC [25] | MIC [26] | MIC [29] | other results
1 | CCC1OC(=O)CC(O)C(C)C(OC2OC(C)C(O)C(N(C)C)C2O)C(CC=O)CC(C)C(=O)C=CC(C)=CC1CN1C2CCCCC2C2CCCCC21 (stereo not drawn) [Compound 25, 23-deoxy-23-(dodecahydro-9H--carbazol-9-yl)-OMT] | 0.5 µg/mL (≈ 0.659 µM) | 1 µg/mL (≈ 1.32 µM) | 0.5 µg/mL (≈ 0.659 µM) | 4 µg/mL (≈ 5.27 µM) | 0.5 µg/mL (≈ 0.659 µM) | 0.5 µg/mL (≈ 0.659 µM) | 0.5 µg/mL (≈ 0.659 µM) | 0.25 µg/mL (≈ 0.329 µM) | 63 mg/kg | 50 µg/mL (≈ 65.9 µM) | 1.56 µg/mL (≈ 2.06 µM) | 1.56 µg/mL (≈ 2.06 µM) | 50 µg/mL (≈ 65.9 µM) | < 0.048 µg/mL | 1.56 µg/mL (≈ 2.06 µM) | 1.56 µg/mL (≈ 2.06 µM) | 1.56 µg/mL (≈ 2.06 µM) | 1.56 µg/mL (≈ 2.06 µM) | 0.78 µg/mL (≈ 1.03 µM) | 25 µg/mL (≈ 32.9 µM) | MIC ([1]; agar dilution, Streptococcus pneumoniae Park I, read-out: MIC): 0.125 µg/mL (≈ 0.165 µM); MIC ([3]; agar dilution, Staphylococcus aureus X400, methicillin-resistant strain, read-out: MIC): 1 µg/mL (≈ 1.32 µM); MIC ([9]; agar dilution, Staphylococcus epidermidis EPI1, read-out: MIC): 0.5 µg/mL (≈ 0.659 µM); MIC ([10]; Staphylococcus epidermidis, 222): 0.25 µg/mL (≈ 0.329 µM); ED50 ([13]; sc, subcutaneous, read-out: ED50 Subcutaneous): 7.43 mg/kg; ED50 Subcutaneous ([13]; subcutaneous): > 10 mg/kg × 2; MIC [14]: < 0.048 µg/mL; MIC ([19]; broth-dilution microtiter, Mycoplasma gallisepticum 29C, read-out: MIC): 0.097 µg/mL (≈ 0.128 µM); MIC ([23]; broth-dilution microtiter, Pasteurella hemolytica 22C, read-out: MIC): 3.12 µg/mL (≈ 4.11 µM); MIC ([27]; 40A): < 0.048 µg/mL; MIC ([28]; broth-dilution microtiter, Mycoplasma hyopneumoniae S5972, read-out: MIC): < 0.012 µg/mL; MIC [30]: 1.56 µg/mL (≈ 2.06 µM); ED50 [31]: 7.69 mg/kg; ED50 [32]: > 10 mg/kg
2 | CCC1OC(=O)CC(O)C(C)C(OC2OC(C)C(O)C(N(C)C)C2O)C(CC=O)CC(C)C(=O)C=CC(C)=CC1CN1CCCC12CCCCC2 (stereo not drawn) [Compound 31, 23-deoxy-23-(1-azaspiro[4.5]decan-1-yl)-OMT] | 0.5 µg/mL (≈ 0.695 µM) | 2 µg/mL (≈ 2.78 µM) | 0.25 µg/mL (≈ 0.348 µM) | 2 µg/mL (≈ 2.78 µM) | 0.5 µg/mL (≈ 0.695 µM) | 0.25 µg/mL (≈ 0.348 µM) | 0.5 µg/mL (≈ 0.695 µM) | 0.125 µg/mL (≈ 0.174 µM) | 59.5 mg/kg | 50 µg/mL (≈ 69.5 µM) | 0.39 µg/mL (≈ 0.542 µM) | 0.39 µg/mL (≈ 0.542 µM) | 50 µg/mL (≈ 69.5 µM) | < 0.048 µg/mL | 0.39 µg/mL (≈ 0.542 µM) | 0.39 µg/mL (≈ 0.542 µM) | 0.39 µg/mL (≈ 0.542 µM) | 0.195 µg/mL (≈ 0.271 µM) | 0.39 µg/mL (≈ 0.542 µM) | 6.25 µg/mL (≈ 8.69 µM) | MIC ([1]; Streptococcus pneumoniae): 0.03 µg/mL (≈ 0.0417 µM); MIC ([3]; Staphylococcus aureus, X400): 0.5 µg/mL (≈ 0.695 µM); MIC ([9]; Staphylococcus epidermidis, EPI1): 0.5 µg/mL (≈ 0.695 µM); MIC ([10]; agar dilution, Staphylococcus epidermidis 222, read-out: MIC): 0.25 µg/mL (≈ 0.348 µM); MIC ([19]; 29C): 0.097 µg/mL (≈ 0.135 µM); MIC ([23]; Pasteurella, 22C): 0.78 µg/mL (≈ 1.08 µM); MIC ([27]; broth-dilution microtiter, Mycoplasma synoviae 40A, read-out: MIC): 0.195 µg/mL (≈ 0.271 µM); MIC ([28]; S5972): 0.097 µg/mL (≈ 0.135 µM); MIC [30]: 0.39 µg/mL (≈ 0.542 µM); ED50 [31]: 2.15 mg/kg; Number of Deaths/Number Treated [33]: 0/10 and 3/10; ED50 [32]: 9.22 mg/kg
